Test system: 699152-130-R-J1-PDC complex spheroid growth
Assay: Anticancer human tumor 699152-130-R-J1-PDC patient-derived pancreatic carcinoma cell line growth inhibition [AhR]
Details: for IC50: curve of first compound; for viability, T/C: stronger effect = lower value
In short: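 Agents were dosed in half-log steps down from roughly clinical Cmax, or from 10 microM where Cmax was unknown, alone and with AhR antagonists. Read-out: percent test/control growth of tumor spheroids containing HUVEC and MSC stromal cells.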

[1] = second compound 0.1 µM, first compound 0.0316 µM
[2] = second compound 0.1 µM, first compound 0.1 µM
[3] = second compound 0.1 µM, first compound 0.316 µM
[4] = second compound 0.1 µM, first compound 1 µM
[5] = second compound 0.1 µM, first compound 3.16 µM
[6] = second compound 0.1 µM, first compound 10 µM
[7] = second compound 0.316 µM, first compound 0.0316 µM
[8] = second compound 0.316 µM, first compound 0.1 µM
[9] = second compound 0.316 µM, first compound 0.316 µM
[10] = second compound 0.316 µM, first compound 1 µM
[11] = second compound 0.316 µM, first compound 3.16 µM
[12] = second compound 0.316 µM, first compound 10 µM
[13] = second compound 1 µM, first compound 0.0316 µM
[14] = second compound 1 µM, first compound 0.1 µM
[15] = second compound 1 µM, first compound 0.316 µM
[16] = second compound 1 µM, first compound 1 µM
[17] = second compound 1 µM, first compound 3.16 µM
[18] = second compound 1 µM, first compound 10 µM
[19] = second compound 3.16 µM, first compound 0.0316 µM
[20] = second compound 3.16 µM, first compound 0.1 µM
[21] = second compound 3.16 µM, first compound 0.316 µM
[22] = second compound 3.16 µM, first compound 1 µM
[23] = second compound 3.16 µM, first compound 3.16 µM
[24] = second compound 3.16 µM, first compound 10 µM
[25] = second compound 10 µM, first compound 0.0316 µM
[26] = second compound 10 µM, first compound 0.1 µM
[27] = second compound 10 µM, first compound 0.316 µM
[28] = second compound 10 µM, first compound 1 µM
[29] = second compound 10 µM, first compound 3.16 µM
[30] = second compound 10 µM, first compound 10 µM
[31] = second compound 0.1 µM, first compound 0.00316 µM
[32] = second compound 0.1 µM, first compound 0.01 µM
[33] = second compound 0.316 µM, first compound 0.00316 µM
[34] = second compound 0.316 µM, first compound 0.01 µM
[35] = second compound 1 µM, first compound 0.00316 µM
[36] = second compound 1 µM, first compound 0.01 µM
[37] = second compound 3.16 µM, first compound 0.00316 µM
[38] = second compound 3.16 µM, first compound 0.01 µM
[39] = second compound 10 µM, first compound 0.00316 µM
[40] = second compound 10 µM, first compound 0.01 µM
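Also: compound exposure lasted 7 days after spheroids had grown for 3 days.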

SMILES	IC50 (second compound 0.1 µM) [nM]	IC50 (second compound 0.316 µM) [nM]	IC50 (second compound 1 µM) [nM]	IC50 (second compound 3.16 µM) [nM]	IC50 (second compound 10 µM) [nM]	viability, T/C [1] [%]	viability, T/C [2] [%]	viability, T/C [3] [%]	viability, T/C [4] [%]	viability, T/C [7] [%]	viability, T/C [8] [%]	viability, T/C [9] [%]	viability, T/C [10] [%]	viability, T/C [13] [%]	viability, T/C [14] [%]	viability, T/C [15] [%]	viability, T/C [19] [%]	viability, T/C [20] [%]	viability, T/C [25] [%]	viability, T/C [26] [%]	other results
CC(C)c1c(-c2ccccc2)nc2c(C#N)c[nH]n2c1=O + Cc1ccccc1N=Nc1ccc(NC(=O)c2ccnn2C)c(C)c1	> 10000	> 10000	> 10000	> 10000	> 10000	104	81.7	89.5	86.4	94.6	86.2	82.6	82.5	83.3	93	87.7	96	102	99.7	96.6	viability, T/C [5]: 79.6%; viability, T/C [6]: 92.1%; viability, T/C [11]: 84.6%; viability, T/C [12]: 84.6%; viability, T/C [16]: 99.1%; viability, T/C [17]: 86.7%; viability, T/C [18]: 90.8%; viability, T/C [21]: 103%; viability, T/C [22]: 82.5%; viability, T/C [23]: 98.8%; viability, T/C [24]: 93.5%; viability, T/C [27]: 103%; viability, T/C [28]: 102%; viability, T/C [29]: 106%; viability, T/C [30]: 103%
COc1cc(C2c3cc4c(cc3C(OC3OC5COC(C)OC5C(O)C3O)C3COC(=O)C23)OCO4)cc(OC)c1O (stereo not given) + Cc1cncc(-c2nc(NCCc3c[nH]c4ccccc34)c3ncn(C(C)C)c3n2)c1	> 10000	7660	9210	2700	< 31.6	106	98	70.1	70.3	104	89.5	80.2	67.4	99.6	97.2	74.9	106	91.3	0.93	1.13	viability, T/C [5]: 58%; viability, T/C [6]: 52.6%; viability, T/C [11]: 58.9%; viability, T/C [12]: 46.8%; viability, T/C [16]: 77.5%; viability, T/C [17]: 63.6%; viability, T/C [18]: 47.4%; viability, T/C [21]: 70.1%; viability, T/C [22]: 60.6%; viability, T/C [23]: 48.5%; viability, T/C [24]: 41.7%; viability, T/C [27]: 1.96%; viability, T/C [28]: 1.2%; viability, T/C [29]: 1.07%; viability, T/C [30]: 4.92%
Nc1ncn(C2CC(O)C(CO)O2)c(=O)n1 (stereo not given) + Cc1cncc(-c2nc(NCCc3c[nH]c4ccccc34)c3ncn(C(C)C)c3n2)c1	> 1000	> 1000	> 1000	> 1000	< 3.16	90.4	98.4	85.4	87.8	104	86.5	96.3	97.2	99.6	97.9	110	111	100	0.78	0.82	viability, T/C [31]: 109%; viability, T/C [32]: 88%; viability, T/C [33]: 99.3%; viability, T/C [34]: 90.8%; viability, T/C [35]: 106%; viability, T/C [36]: 115%; viability, T/C [16]: 92.2%; viability, T/C [37]: 95%; viability, T/C [38]: 87.1%; viability, T/C [21]: 97.6%; viability, T/C [22]: 93.9%; viability, T/C [39]: 0.96%; viability, T/C [40]: 2.37%; viability, T/C [27]: 1.11%; viability, T/C [28]: 5.98%

Second part, led by results:

IC50 (second compound 0.1 µM) [nM]	IC50 (second compound 0.316 µM) [nM]	IC50 (second compound 1 µM) [nM]	IC50 (second compound 3.16 µM) [nM]	IC50 (second compound 10 µM) [nM]	SMILES	viability, T/C [1] [%]	viability, T/C [2] [%]	viability, T/C [3] [%]	viability, T/C [4] [%]	viability, T/C [7] [%]	viability, T/C [8] [%]	viability, T/C [9] [%]	viability, T/C [10] [%]	viability, T/C [13] [%]	viability, T/C [14] [%]	viability, T/C [15] [%]	viability, T/C [19] [%]	viability, T/C [20] [%]	viability, T/C [25] [%]	viability, T/C [26] [%]	other results
4780	4070	5290	5320	4790	COc1ccc([C@@H](O)c2cc(-c3ncnc4cc(N5CCOCC5)ccc34)c(F)cc2Cl)nn1 + Cc1ccccc1N=Nc1ccc(NC(=O)c2ccnn2C)c(C)c1	93.5	108	90	81.4	83.7	91.8	97.5	80	96.8	91.8	87.2	93.8	98.4	107	111	viability, T/C [5]: 61.7%; viability, T/C [6]: 30.5%; viability, T/C [11]: 55.6%; viability, T/C [12]: 32.3%; viability, T/C [16]: 79.5%; viability, T/C [17]: 61.1%; viability, T/C [18]: 35.6%; viability, T/C [21]: 90%; viability, T/C [22]: 86.5%; viability, T/C [23]: 61.9%; viability, T/C [24]: 35.3%; viability, T/C [27]: 110%; viability, T/C [28]: 94.5%; viability, T/C [29]: 61%; viability, T/C [30]: 31.1%
> 100	> 100	> 100	> 100	< 0.316	CC[C@@]1(O)C(=O)OCc2c1cc1n(c2=O)Cc2cc3c(CN(C)C)c(O)ccc3nc2-1 + Cc1cncc(-c2nc(NCCc3c[nH]c4ccccc34)c3ncn(C(C)C)c3n2)c1	80.7	69.6	–	–	80.3	66.5	–	–	83.9	62.9	–	64	54.7	11.1	14.1	viability, T/C (second compound 0.1 µM, first compound 0.000316 µM): 102%; viability, T/C (second compound 0.1 µM, first compound 0.001 µM): 98.5%; viability, T/C [31]: 100%; viability, T/C [32]: 101%; viability, T/C (second compound 0.316 µM, first compound 0.000316 µM): 101%; viability, T/C (second compound 0.316 µM, first compound 0.001 µM): 98.4%; viability, T/C [33]: 98%; viability, T/C [34]: 93.9%; viability, T/C (second compound 1 µM, first compound 0.000316 µM): 105%; viability, T/C (second compound 1 µM, first compound 0.001 µM): 107%; viability, T/C [35]: 105%; viability, T/C [36]: 99.4%; viability, T/C (second compound 3.16 µM, first compound 0.000316 µM): 112%; viability, T/C (second compound 3.16 µM, first compound 0.001 µM): 92.8%; viability, T/C [37]: 95%; viability, T/C [38]: 93.7%; viability, T/C (second compound 10 µM, first compound 0.000316 µM): 12.6%; viability, T/C (second compound 10 µM, first compound 0.001 µM): 11.5%; viability, T/C [39]: 10.6%; viability, T/C [40]: 12.1%
349	342	356	117	< 31.6	COc1cccc2c1C(=O)c1c(O)c3c(c(O)c1C2=O)CC(O)(C(=O)CO)CC3OC1CC(N)C(O)C(C)O1 (stereo not given) + Cc1cncc(-c2nc(NCCc3c[nH]c4ccccc34)c3ncn(C(C)C)c3n2)c1	67.3	64.1	51.4	25.4	62.9	58.7	51.6	22.9	70.8	71.5	52.5	51.5	53.3	14.6	16.3	viability, T/C [5]: 2.77%; viability, T/C [6]: 7.37%; viability, T/C [11]: 2.99%; viability, T/C [12]: 7.49%; viability, T/C [16]: 20.9%; viability, T/C [17]: 3.69%; viability, T/C [18]: 6.86%; viability, T/C [21]: 34.7%; viability, T/C [22]: 5.89%; viability, T/C [23]: 4.86%; viability, T/C [24]: 7.43%; viability, T/C [27]: 14.2%; viability, T/C [28]: 1.29%; viability, T/C [29]: 5.06%; viability, T/C [30]: 5.36%
